Test results as given in BindingDB's records for doi:10.1016/j.bmcl.2011.09.133 (Genzyme, 2011).

Test: Antagonist activity against human CCR5 assessed as inhibition of HIV1 gp120-induced cell-cell fusion between human HeLa P4/R5 cells and CHO-tat10 cells expressing HIV-1JRFL viral envolop protein after 20 hrs by beta-galactosidase reporter gene assay

Compound	IC50
COc1ccc(N(Cc2cnccc2C)C2CCN([C@H](C)CCNC(=O)c3c(C)ccnc3Cl)CC2)cc1	0.7 nM
CC(CCNC(=O)c1c(Cl)cncc1Cl)N1CCC(N(Cc2cccc(C#N)c2)c2ccc(C#N)cc2)CC1 (stereo unspecified)	12 nM
Cc1ccncc1CN(c1ccc([S+](C)[O-])cc1)C1CCN([C@H](C)CCNC(=O)c2c(C)ncnc2C)CC1 (stereo partly specified)	130 nM
CC(CCNC(=O)c1c(Cl)cncc1Cl)N1CCC(N(Cc2ccccc2)c2ccc(C(=O)N(C)C)cc2)CC1 (stereo unspecified)	116 nM
COc1ccc(N(Cc2cccc(C#N)n2)C2CCN([C@H](C)CCNC(=O)c3c(C)cc(F)nc3C)CC2)cc1	0.7 nM
CC(CCNC(=O)c1c(Cl)cncc1Cl)N1CCC(N(Cc2cccc(C#N)c2)c2ccc(OC(F)(F)F)cc2)CC1 (stereo unspecified)	3 nM
COc1ccc(N(Cc2cccnc2)C2CCN([C@H](C)CCNC(=O)c3c(C)cc(F)nc3C)CC2)cc1	1.6 nM
COC(=O)c1ccc(N(Cc2ccccc2)C2CCN(C(C)CCNC(=O)c3c(Cl)cncc3Cl)CC2)cc1 (stereo unspecified)	90 nM
COc1ccc(N(Cc2cnccc2C)C2CCN([C@H](C)CCNC(=O)c3cnc(Cl)cc3C)CC2)cc1	12.3 nM
COCCOc1ccc(N(Cc2cnccc2C)C2CCN([C@H](C)CCNC(=O)c3c(C)cc(Cl)nc3C)CC2)cc1	0.6 nM
COc1cccc(CN(c2ccc(Br)cc2)C2CCN(C(C)CCNC(=O)c3c(Cl)cncc3Cl)CC2)c1 (stereo unspecified)	387 nM
COc1ccc(N(Cc2cccnc2)C2CCN([C@H](C)CCNC(=O)c3c(C)cc(Cl)nc3C)CC2)cc1	1.5 nM
CC(CCNC(=O)c1c(Cl)cncc1Cl)N1CCC(N(Cc2ccccc2)c2ccc(C#N)cc2)CC1 (stereo unspecified)	19 nM
COc1ccc(N(Cc2cccc(C#N)n2)C2CCN([C@H](C)CCNC(=O)c3c(C)cc(C#N)nc3C)CC2)cc1	0.3 nM
CC(CCNC(=O)c1c(Cl)cncc1Cl)N1CCC(N(Cc2ccccc2)c2ccc(Br)cc2)CC1 (stereo unspecified) [N-(3-(4-(benzyl(4-bromophenyl)amino)piperidin-1-yl)butyl)-3,5-dichloroisonicotinamide]	49 nM
CC(CCNC(=O)c1c(Cl)cncc1Cl)N1CCC(N(Cc2ccccc2)c2ccc(C(F)(F)F)cc2)CC1 (stereo unspecified)	34 nM
Cc1ccncc1CN(c1ccc(OCC(N)=O)cc1)C1CCN([C@H](C)CCNC(=O)c2c(C)cc(C#N)nc2C)CC1	0.98 nM
COc1ccc(N(Cc2cnccc2C)C2CCN([C@H](C)CCNC(=O)c3c(C)cc(F)nc3C)CC2)cc1	0.3 nM

Compound	IC50
COc1ccc(N(Cc2cnccc2C)C2CCN([C@H](C)CCNC(=O)c3c(C)ccnc3C)CC2)cc1	2.4 nM
COc1ccc(N(Cc2cnccc2C)C2CCN([C@H](C)CCNC(=O)c3c(C)cc(C#N)nc3C)CC2)cc1	0.3 nM
CC(CCNC(=O)c1c(Cl)cncc1Cl)N1CCC(N(Cc2cccc(C#N)c2)c2ccc(C(F)(F)F)cc2)CC1 (stereo unspecified)	3 nM
Cc1ccncc1CN(c1ccccc1)C1CCN([C@H](C)CCNC(=O)c2c(C)cc(C#N)nc2C)CC1	7 nM
CC(CCNC(=O)c1c(Cl)cncc1Cl)N1CCC(N(Cc2cccc(Cl)c2)c2ccc(Br)cc2)CC1 (stereo unspecified)	30 nM
COc1ccc(N(Cc2cnccc2C)C2CCN([C@H](C)CCNC(=O)c3c(C)cncc3C)CC2)cc1	7 nM
COc1ccc(N(Cc2cnccc2C)C2CCN([C@@H](C)CCNC(=O)c3c(C)cc(Cl)nc3C)CC2)cc1	40 nM
COc1ccc(N(Cc2ccccc2)C2CCN(C(C)CCNC(=O)c3c(Cl)cncc3Cl)CC2)cc1 (stereo unspecified)	50 nM
COc1ccc(N(Cc2cccc(C#N)n2)C2CCN([C@H](C)CCNC(=O)c3c(C)cc(Cl)nc3C)CC2)cc1	0.3 nM
CC(CCNC(=O)c1c(Cl)cncc1Cl)N1CCC(N(Cc2ccccc2)c2ccc(OC(F)(F)F)cc2)CC1 (stereo unspecified)	26 nM
CC(CCNC(=O)c1c(Cl)cncc1Cl)N1CCC(N(Cc2ccccc2)c2ccc(Oc3ccc(C(=O)O)cc3)cc2)CC1 (stereo unspecified)	11 nM
COc1ccc(N(Cc2cccc(C#N)c2)C2CCN(C(C)CCNC(=O)c3c(Cl)cncc3Cl)CC2)cc1 (stereo unspecified)	2 nM
COc1ccc(N(Cc2cnccc2C)C2CCN([C@H](C)CCNC(=O)c3c(C)cc(C(=O)NC(C)C)nc3C)CC2)cc1	0.09 nM
Cc1ccncc1CN(c1ccc(N2CCOCC2)cc1)C1CCN([C@H](C)CCNC(=O)c2c(C)cc(Cl)nc2C)CC1	1590 nM
COc1ccc(N(Cc2cnccc2C)C2CCN([C@H](C)CCNC(=O)c3c(C)cc(Cl)nc3C)CC2)cc1	0.2 nM
CC(CCNC(=O)c1c(Cl)cncc1Cl)N1CCC(N(Cc2cccc(C#N)c2)c2ccc(Br)cc2)CC1 (stereo unspecified)	8 nM
COCCOc1ccc(N(Cc2cnccc2C)C2CCN([C@H](C)CCNC(=O)c3c(C)cc(F)nc3C)CC2)cc1	1.3 nM
COCCOc1ccc(N(Cc2cnccc2C)C2CCN([C@H](C)CCNC(=O)c3c(C)cc(C#N)nc3C)CC2)cc1	0.8 nM
